# Measured values published in PubChem BioAssay (NCI).
#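 GI50: concentration for 50% inhibition of growth. TGI marks complete inhibition of growth.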
# Tests used:
# Assay in all cases: growth of human tumour cells (NCI), 384-well format
# [1] = test system: OVCAR-3 ovarian
# [2] = test system: T-47D breast
# [3] = test system: OVCAR-5 ovarian
# [4] = test system: NCI/ADR-RES ovarian
# [5] = test system: HT29 colon
# [6] = test system: NCI-H23 lung
# [7] = test system: A498 renal
# [8] = test system: RXF 393 renal
# [9] = test system: HCT-15 colon
# [10] = test system: SF-295 CNS
# [11] = test system: SK-MEL-28 melanoma
# [12] = test system: MDA-MB-435 melanoma
# [13] = test system: EKVX NSCLC
smiles,measurement,setting,value
Cc1cc(Nc2ncc(Cl)c(Nc3ccccc3S(=O)(=O)C(C)C)n2)c(OC(C)C)cc1C1CCNCC1,GI50,[1],1590 nM
same,TGI,[1],2960 nM
same,GI50,[2],1400 nM
same,TGI,[2],2710 nM
same,GI50,[3],1510 nM
same,TGI,[3],2850 nM
same,GI50,[4],1540 nM
same,TGI,[4],2890 nM
same,GI50,[5],408 nM
same,TGI,[5],1460 nM
same,GI50,[6],1270 nM
same,TGI,[6],2550 nM
same,GI50,[7],1620 nM
same,TGI,[7],2990 nM
same,GI50,[8],1900 nM
same,TGI,[8],3310 nM
same,GI50,[9],648 nM
same,TGI,[9],1760 nM
same,GI50,[10],1700 nM
same,TGI,[10],3090 nM
same,GI50,[11],1540 nM
same,TGI,[11],2880 nM
same,GI50,[12],1270 nM
same,TGI,[12],2550 nM
same,GI50,[13],1290 nM
same,TGI,[13],2570 nM
